The text below walks through data of patent publication US8003093B2, “B cell-based vaccine loaded with the ligand of natural killer T cell and antigen” (Seoul National University Industry Foundation, priority 2006, dated 2011).

The conditions of data set [1]: 2200 μg/kg, mouse; cited from earlier work.
The conditions of data set [2]: rodents and apes; cited from earlier work.
For data set [3] the following is noted: clinical trial, systemic administration; cited from earlier work.
The nature of data set [4]: Dose escalation study of αGalCer. The class given is in vivo. An excerpt:
There is a little, if ever, chance to show a slight systemic side effect (Giaccone et al., Clin. Cancer Res., 8: 3702, 2002).

Each structure is given as a SMILES string.

On to `CCCCCCCCCCCCCCCCCCCCCCCCCC(=O)N[C@@H](CO[C@H]1O[C@H](CO)[C@H](O)[C@H](O)[C@H]1O)[C@H](O)[C@H](O)CCCCCCCCCCCCCC` [αGalCer, Alpha-galactosylceramide], for which the side effects result in data set [1] is on record as “No side effects”. Further, the toxicity entry in data set [2] was “doesn't seem to induce toxicity”. The side effect entry in data set [3] is on record as “a light headache”. Moreover, the dose-limiting toxicity result in data set [4] is listed as “did not cause dose-limiting toxicity”.
